The results in this text go back to US20100210559A1, “TRAP-14 AS A THERAPEUTIC AGENT” (priority 2007, published 2010).

This assay has as its system drug-resistant Mycobacterium tuberculosis. The following applies: drug-resistant Mycobacterium tuberculosis (PAS, streptomycin, INH); peptide 10 micrograms per ml; seven days.

No end group written: not given here.

On to SFLLRNPNDKYEPF-OH [TRAP-14], for which the “% inhibition” value was 0.0%.

The term % inhibition denotes how much of the control response was suppressed. High values mean a strong effect, low ones a weak effect.
